Experimental data published in patent US10695288B2, “Reactive oxygen species (ROS)-responsive compositions and methods thereof” (VANDERBILT UNIVERSITY, priority 2014, dated 2020).

Tests used:
[1] = Peroxynitrite scavenging in vitro (Pyrogallol Red bleaching assay); format: biochemical; conditions: 10 μM peroxynitrite; negative control
Procedure: The ability of PPS microspheres to scavenge peroxynitrite was tested in vitro using a Pyrogallol Red (PGR) bleaching assay. Treatment groups consisting of PBS, blank PPS microspheres (0.5-1.5 mg/mL), tempo-PPS microspheres (0.5 mg/mL), tempol (0.2 mg/mL, hydrophilic analog of tempo-benzoate), and ascorbic acid (negative control, pH adjusted to 7.4) were prepared in a 48-well plate with 500 μL volume per well. A PGR stock solution was prepared in PBS ([…]) and 10 μL was added to each well. Peroxynitrite stock solution was thawed on ice and diluted to a concentration of 1 mM in 0.3 M NaOH. After baseline absorbance of the dye was measured in a plate reader at 540 nm, 5 μL of peroxynitrite was added to each well (final concentration of 10 μM) and absorbance measurements were collected for one hour.

[2] = system: MMP-13 activity; assay: IVIS imaging of MMPSense fluorescence after knee mechanical overload; format: in vivo, C57BL/6 mice; conditions: knee injection, loading cycles; vs PBS; p=0.0184 for microspheres
Procedure: (§1) For the study, C57BL/6 mice knees were injected with TPCA-1-PPS microspheres, TPCA-1 in its soluble form, or a PBS saline control. The mice were then given loading cycles to induce damage to the knee via the Poulet model of knee overload. At the completion of the loading cycles, the mice were given fluorescent indicators and evaluated using IVIS (in vivo imaging system) for type II collagen (and indicator of cartilage damage), and MMP activity (implicated in the progression of OA). […] This difference was not seen in the mice given the soluble form of TPCA-1 however.
(§2) TPCA-PPS microspheres were made as shown above. Chondrocytes were obtained from porcine cadavers prepared by the University of Tennessee Heath Science Center. MMPSense750 and XenoFluor 680 was obtained from PerkinElmer. Monoclonal antibodies to type II collagen were produced in our lab. C57BL/6 male mice were obtained from Jackson Laboratory (Maine, USA) and was acclimated in a housing facility before experimentation. A custom fit ElectroForce® 3200 (Bose Corp., Minnesota, USA) biomaterials test instrument was used for mechanical loading. The mechanical loading apparatus was custom made to fit the proximal tibia in the upper cup and dorsiflexed ankle in the bottom cup.

[3] = system: type II collagen; assay: IVIS imaging of MabCII fluorescence after knee mechanical overload; format: in vivo, C57BL/6 mice; conditions: knee injection, loading cycles; vs PBS; p=0.0181 for microspheres
Procedure: as §1, §2

[4] = Pilot studies with free curcumin in vitro; format: physicochemical
[5] = system: ROS levels in ischemic tissue; assay: Pilot studies with free curcumin in ischemic tissue; format: in vivo
[6] = system: mouse hind limb ischemia model; assay: Speckle variance OCT of vascular morphology in adductor and gastrocnemius regions (Example 2); format: in vivo, FVB mice; conditions: gastrocnemius muscle, day 3, vs saline
Excerpt: Briefly, the femoral artery and vein of the right hind limb were ligated with 6-0 sutures proximal to the origins of the superficial epigastric artery and deep branch of the femoral artery, and proximal to the vessels the branch from the femoral artery near the knee. Major side branches were also ligated with 6-0 sutures before the ligated segment of the femoral artery and vein was excised. The incision was closed with interrupted 5-0 nylon sutures. In therapeutic experiments, treatments were injected intramuscularly in the ischemic limb following closure of the skin incision. […]
At 0, 3, 7, 14, 21, and 28 days post-surgery, the hind limb vasculature in the adductor and gastrocnemius muscle regions was imaged using a swept-source optical coherence tomography (OCT) system as described previously (26, 39). […] Speckle variance OCT volumes were acquired non-invasively through the skin in 4 mm×4 mm areas covering the two muscle regions, and average intensity projections in depth were used to visualize all vessels detected within the imaged volume. After image processing was performed to enhance contrast and enable vessel segmentation (39, 40), morphological parameters including vessel area density (total area filled by vessels/total area of imaged region) and vessel length fraction (total vessel length/total area of imaged region) were quantified.

[7] = Hydrogen peroxide scavenging in vitro (Amplex Red, xanthine/xanthine oxidase); format: biochemical; conditions: 1 hour of incubation, one-way ANOVA p<0.001
Procedure: H2O2-scavenging activity of the PPS microspheres was verified in vitro using an Amplex Red Hydrogen Peroxide/Peroxidase Assay kit according to the manufacturer's instructions. Xanthine and xanthine oxidase were used at the same concentrations as described in the DHE assay to generate a reaction solution containing both superoxide and hydrogen peroxide. The reaction solution was added to wells in a black-walled, 96-well plate containing either PBS, blank PPS microspheres (final concentrations of 60 μg/mL and 7 μg/mL), or free tempo-benzoate (final concentrations of 0.5 mg/mL and 60 μg/mL). The Amplex Red working solution was freshly prepared as described in the kit instructions using the included Amplex Red, horseradish peroxidase, and 1× reaction buffer. The working solution was then added to the wells and fluorescence was measured in a plate reader at 1 hour with an excitation of 530 nm and an emission of 590 nm.

[8] = Superoxide scavenging in vitro (DHE fluorescence, xanthine/xanthine oxidase); format: biochemical; conditions: 55 μg/mL, one-way ANOVA p<0.0001
Procedure: In vitro superoxide scavenging activity of the tempo-PPS microspheres was evaluated using a dihydroethidium (DHE) fluorescence assay. DHE has been widely used to detect superoxide, which reacts with DHE to form a specific fluorescent product, 2-OH-ethidium (2OH-E). The effects of PPS and tempo-benzoate on superoxide were determined using a superoxide-generating, cell-free enzymatic system containing 0.046 U/ml xanthine oxidase and 0.2 mM xanthine. Xanthine was prepared in PBS−/− as a stock solution (1.21 mg/mL), and the appropriate volume of xanthine stock solution was added to the xanthine oxidase solution to reach the required final concentration. The xanthine/xanthine oxidase solution (100 μL) was added to wells in a black-walled, 96-well plate containing the following treatments: PBS, blank PPS microspheres (55 μg/mL), free tempo-benzoate (dissolved in acetonitrile then diluted to 5% acetonitrile, 55 μg/mL tempo-benzoate), and tempo-PPS microspheres (55 μg/mL microsphere concentration). Each well contained 10 μL of a treatment. […] After 10 minutes, 100 μL of the DHE solution was added to each well (10 uM final DHE concentration) and the fluorescence intensity was measured in a plate reader (Tecan Group Ltd., Mannedorf, Switzerland) over a time frame of 1 hour with an excitation of 405 nm and an emission of 570 nm. […]

[9] = system: MMP-13; assay: MMP-13 expression from PCR with TNF-α; format: cell-based, porcine; conditions: TNF-α alone
Excerpt: as §2

O=C1O[C@H]([C@@H](O)CO)C(O)=C1O [Ascorbic acid, ascorbic acid]
relative bleaching [1]: 2%

NC(=O)Nc1sc(-c2ccc(F)cc2)cc1C(N)=O [TPCA-1 in solution, TPCA-1]
MMPSense fluorescence (MMP-13 activity) [2]: not a significant reduction in fluorescence | MabCII fluorescence (exposed type II collagen) [3]: not a significant reduction in fluorescence

COc1cc(/C=C/C(=O)CC(=O)/C=C/c2ccc(O)c(OC)c2)ccc1O [free curcumin, Curcumin]
behaviour of free curcumin in vitro [4]: formed crystals in vitro | ROS levels in ischemic tissue [5]: exacerbated ROS levels in ischemic tissue

CC1(C)CC(OC(=O)c2ccccc2)CC(C)(C)N1[O] [free tempo-benzoate, 4-hydroxy-TEMPO benzoate]
vessel area density ([6]; p<0.01): saline-treated mice have significantly lower vessel area density | vessel length fraction ([6]; p<0.05): significantly lower in the saline group | Amplex Red fluorescence [7]: significantly increases the fluorescent signal | fluorescent signal from the DHE oxidation product compared to no treatment [8]: significantly reduce fluorescence

SOD: bovine SOD (20 U/ml) used as a negative control treatment
fluorescent signal from the DHE oxidation product compared to no treatment [8]: further inhibited

TNF-α
increase in MMP-13 expression [9]: ~20 fold
